Data reported in US20070196886A1 (priority 2004, published 2007).
Like-named read-outs stand apart in the source and are kept apart here.

Legend:
[1] = system: Strain DH5α transformed with pRL663 or a pRL663 derivative
[2] = molecular target: T1, halted transcription elongation complex containing 12 nt of RNA (TEC12) (Escherichia coli, UniProt P0A8T7+P0A8V2); experiment: Transcription experiment starting with halted elongation complex (TEC12); assay type: biochemical; conditions: 0, 1, 10, or 100 μM MccJ25; compared with open-complex experiments
T1 construct: made in house
Description: TEC12 was prepared by reaction for 5 min at 37° C. with 0.5 mM ApA, and 12.5 μM each of [α-^32P]UTP, ATP, and GTP.

RNAP holoenzyme = RNAP holoenzyme (Escherichia coli, UniProt P0A8T7+P0A8V2); experiment: Electrophoretic mobility shift assays (open-complex formation); assay type: biochemical; conditions: MccJ25 at 1, 10, or 100 μM; lacUV5 promoter
Description: Following 15 min at 37° C., 0.5 μl 1 mg/ml heparin was added (to disrupt non-specific complexes), and, following a further 2 min at 37° C., reaction mixtures were applied to 5% polyacrylamide slab gels (30:1 acrylamide/bisacrylamide; 6×9×0.1 cm) and electrophoresed in 90 mM Tris-borate (pH 8.0) and 0.2 mM EDTA (20 V/cm; 30 min at 37° C.) and analyzed using a fluorescence scanner (Storm 860; Molecular Dynamics)

[3] = molecular target: T2, [Ile931]β′ RNAP holoenzyme (Escherichia coli, UniProt P0A8T7+P0A8V2, T931I); experiment: Transcription assays with RNAP derivative bearing Thr931→Ile substitution in β′; assay type: biochemical
T2 construct: [Ile931]β′ RNAP core and holoenzyme were prepared from strain 397c; hexahistidine (C); made in house; host or cells: E. coli strain 397c (rpoC^ts397) transformed with a pRL663 derivative
Description: Following 15 min at 37° C., 0.5 μl 1 mg/ml heparin was added, and, following a further 2 min at 37° C., RNA synthesis was initiated by addition of 2 μl 5 mM ApA and 125 μM (or 250 μM, 500 μM, and 1 mM) each of [α-^32P]UTP (0.6 Bq/fmol), ATP, CTP, GTP. Following 5 min at 37° C., reactions were terminated by addition of 10 μl 80% formamide, 10 mM EDTA, 0.04% bromophenol blue, and 0.04% xylene cyanol. Products were heated 10 min at 90° C., resolved by urea-PAGE (Sambrook and Russel, (2001)), and quantified using a storage-phosphor scanner (Storm 860; Molecular Dynamics). Identities of tri- and tetranucleotide abortive products were defined as in Borowiec and Gralla, (1985) J. Mol. Biol. 184, 587-598). Data were fit to full-competitive, partial-competitive, full-noncompetitive, partial-noncompetitive, full-uncompetitive, partial-uncompetitive, full-mixed, and partial-mixed models of inhibition using the Fit-To-Model feature of the SigmaPlot Enzyme Kinetics Module (SPSS).

## Microcin J25 [MccJ25]
[1]; 18 of 22 MccJ25-resistant mutants from random mutagenesis
  increase in MBC: ≥ 50 fold
[1]; all 22 MccJ25-resistant mutants from random mutagenesis
  increase in MBC: ≥ 5 fold
[1]; no substitution (wild-type β′), 2 h at 37° C.
  MBC: 0 µg/mL
[1]; rpoB 543 Ala→Leu, 549 Asp→Tyr, multiple-substitution mutant
  MBC: 50 µg/mL
[1]; rpoB 543 Ala→Pro, 546 Glu→Gly, multiple-substitution mutant
  MBC: 50 µg/mL
[1]; rpoB 544 Gly→Asp, saturation mutagenesis
  MBC: 50 µg/mL
[1]; rpoB 545 Phe→Leu, 546 Glu→Asp, multiple-substitution mutant
  MBC: 50 µg/mL
[1]; rpoB 545 Phe→Ser, saturation mutagenesis
  MBC: 50 µg/mL
[1]; rpoB 548 Arg→Gln, saturation mutagenesis
  MBC: 50 µg/mL
[1]; rpoB 549 Asp→His, saturation mutagenesis
  MBC: 50 µg/mL
[1]; rpoC 428 Thr→Asn, saturation mutagenesis
  MBC: 500 µg/mL
[1]; rpoC 428 Thr→Ile, saturation mutagenesis
  MBC: 500 µg/mL
[1]; rpoC 429 Leu→Gln, saturation mutagenesis
  MBC: 500 µg/mL
[1]; rpoC 430 His→Tyr, saturation mutagenesis
  MBC: 500 µg/mL
[1]; rpoC 493 Pro→Thr, 498 Pro→Thr, multiple-substitution mutant
  MBC: 100 µg/mL
[1]; rpoC 498 Pro→Gln, saturation mutagenesis
  MBC: 1000 µg/mL
[1]; rpoC 498 Pro→Leu, saturation mutagenesis
  MBC: 1000 µg/mL
[1]; rpoC 503 Ser→Pro, saturation mutagenesis
  MBC: 500 µg/mL
[1]; rpoC 503 Ser→Tyr, saturation mutagenesis
  MBC: 500 µg/mL
[1]; rpoC 504 Gln→Arg, saturation mutagenesis
  MBC: 500 µg/mL
[1]; rpoC 504 Gln→Glu, saturation mutagenesis
  MBC: 500 µg/mL
[1]; rpoC 508 Leu→Val, saturation mutagenesis
  MBC: 50 µg/mL
[1]; rpoC 680 Asn→Lys, saturation mutagenesis
  MBC: 500 µg/mL
[1]; rpoC 684 Asp→Ala, saturation mutagenesis
  MBC: 1000 µg/mL
[1]; rpoC 684 Asp→Glu, saturation mutagenesis
  MBC: 500 µg/mL
[1]; rpoC 684 Asp→Tyr, saturation mutagenesis
  MBC: 500 µg/mL
[1]; rpoC 684 Asp→Val, saturation mutagenesis
  MBC: 500 µg/mL
[1]; rpoC 732 Gly→Asp, saturation mutagenesis
  MBC: 100 µg/mL
[1]; rpoC 732 Gly→Asp, 733 Ser→Ala, multiple-substitution mutant
  MBC: 100 µg/mL
[1]; rpoC 732 Gly→Asp, Gly→Thr, multiple-substitution mutant
  MBC: 500 µg/mL
[1]; rpoC 733 Ser→Phe, saturation mutagenesis
  MBC: 100 µg/mL
[1]; rpoC 733 Ser→Tyr, saturation mutagenesis
  MBC: 100 µg/mL
[1]; rpoC 733 Ser→Val, saturation mutagenesis
  MBC: 500 µg/mL
[1]; rpoC 733 Ser→Val, 734 Ala→Gly, multiple-substitution mutant
  MBC: 100 µg/mL
[1]; rpoC 735 Ala→Δ, saturation mutagenesis
  MBC: 1000 µg/mL
[1]; rpoC 736 Gln→Pro, saturation mutagenesis
  MBC: 500 µg/mL
[1]; rpoC 738 Arg→Leu, saturation mutagenesis
  MBC: 50 µg/mL
[1]; rpoC 744 Arg→His, saturation mutagenesis
  MBC: 50 µg/mL
[1]; rpoC 744 Arg→Pro, saturation mutagenesis
  MBC: 50 µg/mL
[1]; rpoC 748 Ala→Pro, saturation mutagenesis
  MBC: 100 µg/mL
[1]; rpoC 775 Ser→Cys, saturation mutagenesis
  MBC: 500 µg/mL
[1]; rpoC 776 Thr→Ile, saturation mutagenesis
  MBC: 500 µg/mL
[1]; rpoC 777 His→Pro, saturation mutagenesis
  MBC: 500 µg/mL
[1]; rpoC 777 His→Ser, 778 Gly→Ala, multiple-substitution mutant
  MBC: 500 µg/mL
[1]; rpoC 777 His→Tyr, saturation mutagenesis
  MBC: 1000 µg/mL
[1]; rpoC 779 Ala→Gly, saturation mutagenesis
  MBC: 500 µg/mL
[1]; rpoC 779 Ala→Pro, saturation mutagenesis
  MBC: 500 µg/mL
[1]; rpoC 779 Ala→Thr, saturation mutagenesis
  MBC: 1000 µg/mL
[1]; rpoC 780 Arg→Cys, saturation mutagenesis
  MBC: 1000 µg/mL
[1]; rpoC 782 Gly→Ala, saturation mutagenesis
  MBC: 1000 µg/mL
[1]; rpoC 783 Leu→Pro, saturation mutagenesis
  MBC: 100 µg/mL
[1]; rpoC 784 Ala→Glu, saturation mutagenesis
  MBC: 500 µg/mL
[1]; rpoC 785 Asp→Gly, saturation mutagenesis
  MBC: 500 µg/mL
[1]; rpoC 786 Thr→Ala, saturation mutagenesis
  MBC: 500 µg/mL
[1]; rpoC 786 Thr→Ile, saturation mutagenesis
  MBC: 500 µg/mL
[1]; rpoC 788 Leu→Met, saturation mutagenesis
  MBC: 1000 µg/mL
[1]; rpoC 789 Lys→Arg, saturation mutagenesis
  MBC: 500 µg/mL
[1]; rpoC 789 Lys→Asn, saturation mutagenesis
  MBC: 1000 µg/mL
[1]; rpoC 789 Lys→Gln, saturation mutagenesis
  MBC: 1000 µg/mL
[1]; rpoC 790 Thr→Ala, saturation mutagenesis
  MBC: 1000 µg/mL
[1]; rpoC 790 Thr→Asn, saturation mutagenesis
  MBC: 500 µg/mL
[1]; rpoC 790 Thr→Ile, saturation mutagenesis
  MBC: 1000 µg/mL
[1]; rpoC 790 Thr→Ser, saturation mutagenesis
  MBC: 500 µg/mL
[1]; rpoC 922 Cys→Tyr, saturation mutagenesis
  MBC: 500 µg/mL
[1]; rpoC 926 Pro→Ser, saturation mutagenesis
  MBC: 500 µg/mL
[1]; rpoC 927 Gly→Cys, saturation mutagenesis
  MBC: 1000 µg/mL
[1]; rpoC 927 Gly→Ser, saturation mutagenesis
  MBC: 1000 µg/mL
[1]; rpoC 930 Leu→Met, saturation mutagenesis
  MBC: 1000 µg/mL
[1]; rpoC 931 Thr→Ala, saturation mutagenesis
  MBC: 1000 µg/mL
[1]; rpoC 931 Thr→Ile, saturation mutagenesis
  MBC: 1000 µg/mL
[1]; rpoC 932 Met→Ile, saturation mutagenesis
  MBC: 1000 µg/mL
[1]; rpoC 933 Arg→Cys, saturation mutagenesis
  MBC: 1000 µg/mL
[1]; rpoC 1136 Gly→Ala, saturation mutagenesis
  MBC: 500 µg/mL
[1]; rpoC 1136 Gly→Cys, saturation mutagenesis
  MBC: 1000 µg/mL
[1]; rpoC 1137 Gly→Ala, saturation mutagenesis
  MBC: 500 µg/mL
[1]; rpoC 1137 Gly→Arg, saturation mutagenesis
  MBC: 1000 µg/mL
[1]; rpoC 1240 Val→Glu, saturation mutagenesis
  MBC: 500 µg/mL
[1]; rpoC 1241 Tyr→Cys, saturation mutagenesis
  MBC: 100 µg/mL
[1]; rpoC 1241 Tyr→His, saturation mutagenesis
  MBC: 100 µg/mL
[1]; rpoC 1241 Tyr→Ser, saturation mutagenesis
  MBC: 100 µg/mL
[1]; rpoC 1244 Gln→Glu, saturation mutagenesis
  MBC: 100 µg/mL
[1]; rpoC 1244 Gln→Leu, saturation mutagenesis
  MBC: 500 µg/mL
[1]; rpoC 1244 Gln→Pro, saturation mutagenesis
  MBC: 100 µg/mL
[1]; rpoC 1247 Lys→Gln, saturation mutagenesis
  MBC: 100 µg/mL
[1]; rpoC 1247 Lys→Glu, saturation mutagenesis
  MBC: 100 µg/mL
[1]; rpoC 1248 Ile→Ser, saturation mutagenesis
  MBC: 100 µg/mL
[1]; β′ 424 Asn→Ser, random mutagenesis, single mutant constructed using site-directed mutagenesis
  MBC: 100 µg/mL
[1]; β′ 428 Thr→Ile, random mutagenesis
  MBC: 500 µg/mL
[1]; β′ 430 His→Leu, random mutagenesis
  MBC: 500 µg/mL
[1]; β′ 464 Asp→Gly, random mutagenesis
  MBC: 0 µg/mL
[1]; β′ 469 His→Arg, random mutagenesis
  MBC: 0 µg/mL
[1]; β′ 504 Gln→Arg, random mutagenesis
  MBC: 500 µg/mL
[1]; β′ 733 Ser→Phe, random mutagenesis
  MBC: 500 µg/mL
[1]; β′ 738 Arg→Leu, random mutagenesis
  MBC: 0 µg/mL
[1]; β′ 776 Thr→Ile, random mutagenesis
  MBC: 500 µg/mL
[1]; β′ 779 Ala→Thr, random mutagenesis
  MBC: 1000 µg/mL
[1]; β′ 780 Arg→Cys, random mutagenesis
  MBC: 1000 µg/mL
[1]; β′ 782 Gly→Ala, random mutagenesis
  MBC: 1000 µg/mL
[1]; β′ 785 Asp→Gly, random mutagenesis
  MBC: 500 µg/mL
[1]; β′ 786 Thr→Ile, random mutagenesis
  MBC: 500 µg/mL
[1]; β′ 789 Lys→Arg, random mutagenesis
  MBC: 500 µg/mL
[1]; β′ 789 Lys→Gln, random mutagenesis
  MBC: 1000 µg/mL
[1]; β′ 869 Cys→Arg, random mutagenesis
  MBC: 1000 µg/mL
[1]; β′ 933 Arg→Cys, random mutagenesis
  MBC: 1000 µg/mL
[1]; β′ 1244 Gln→Leu, random mutagenesis
  MBC: 500 µg/mL
[2]
  inhibition of formation of full-length product starting with halted elongation complex: equivalent results
RNAP holoenzyme
  effect on formation of open complex: no effect
[3]
  inhibition upon substitution of residue 931 of the RNAP β′ subunit: overcome completely
